How the values were obtained:
Test in all cases: relative viability (nuclei count vs DMSO), 5 days (fraction); higher = more cells survive
[1] = compound: COc1cc2ncn(-c3cc(OCc4ccccc4C(F)(F)F)c(C(N)=O)s3)c2cc1OC + CC(=O)c1c(C)c2cnc(Nc3ccc(N4CCNCC4)cn3)nc2n(C2CCCC2)c1=O [Palbociclib] (partner 0.5 µM)
How it was run: (§1)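 Relative viability equals treated-well nuclei counts divided by vehicle-well nuclei counts. Counts came from 4× images of lung cancer cell lines grown in 1536-well plates for 5 days after pin-tool dosing on the day after seeding. Dosing used one drug alone or a fixed anchor-drug dose plus five library-drug doses (not always all listed) in √10 steps, and values are medians of duplicate plates.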

[2] = compound: COc1cc2ncn(-c3cc(OCc4ccccc4C(F)(F)F)c(C(N)=O)s3)c2cc1OC + C[C@@H](Oc1cc(-c2cnn(C3CCNCC3)c2)cnc1N)c1c(Cl)ccc(F)c1Cl [Crizotinib] (partner 1 µM)
How it was run: as §1

[3] = compound: COc1cc2ncn(-c3cc(OCc4ccccc4C(F)(F)F)c(C(N)=O)s3)c2cc1OC + NC(=O)Nc1cc(-c2cccc(F)c2)sc1C(=O)N[C@H]1CCCNC1 [AZD7762] (partner 0.2 µM)
How it was run: as §1

[4] = compound: COc1cc2ncn(-c3cc(OCc4ccccc4C(F)(F)F)c(C(N)=O)s3)c2cc1OC + O=C(CCCCCCC(=O)Nc1ccccc1)NO [Vorinostat] (partner 1 µM)
How it was run: as §1

| Cell Line | relative viability ([1]; first compound 0.05 µM) | relative viability ([1]; first compound 0.1581 µM) | relative viability ([1]; first compound 0.5 µM) | relative viability ([1]; first compound 1.581 µM) | relative viability ([1]; first compound 5 µM) | relative viability ([2]; first compound 0.05 µM) | relative viability ([2]; first compound 0.1581 µM) | relative viability ([2]; first compound 0.5 µM) | relative viability ([2]; first compound 1.581 µM) | relative viability ([2]; first compound 5 µM) | relative viability ([3]; first compound 0.05 µM) | relative viability ([3]; first compound 0.1581 µM) | relative viability ([3]; first compound 0.5 µM) | relative viability ([3]; first compound 1.581 µM) | relative viability ([3]; first compound 5 µM) | relative viability ([4]; first compound 0.05 µM) | relative viability ([4]; first compound 0.1581 µM) | relative viability ([4]; first compound 0.5 µM) | relative viability ([4]; first compound 1.581 µM) | relative viability ([4]; first compound 5 µM) |
| --- | --- | --- | --- | --- | --- | --- | --- | --- | --- | --- | --- | --- | --- | --- | --- | --- | --- | --- | --- | --- |
| HOP-62 | 0.411 | 0.417 | 0.403 | 0.148 | 0.107 | 0.765 | 0.935 | 0.824 | 0.206 | 0.101 | 0.523 | 0.714 | 0.316 | 0.118 | 0.0755 | 0.687 | 0.706 | 0.202 | 0.129 | 0.0896 |
| LC-2-ad | 0.457 | 0.422 | 0.401 | 0.237 | 0.194 | 0.485 | 0.422 | 0.295 | 0.212 | 0.287 | 0.769 | 0.896 | 0.576 | 0.14 | 0.129 | 0.559 | 0.543 | 0.129 | 0.161 | 0.129 |
| LCLC-97TM1 | 0.216 | 0.191 | 0.17 | 0.0856 | 0.111 | 0.419 | 0.331 | 0.165 | 0.152 | 0.145 | 0.355 | 0.293 | 0.161 | 0.0896 | 0.0604 | 0.803 | 0.822 | 0.0658 | 0.0665 | 0.0652 |
| LCLC-103H | 0.477 | 0.471 | 0.456 | 0.35 | 0.302 | 0.999 | 1.11 | 0.851 | 0.523 | 0.267 | 0.75 | 0.876 | 0.707 | 0.375 | 0.242 | 0.808 | 0.799 | 0.327 | 0.261 | 0.199 |
| LK-2 | 0.78 | 0.293 | 0.444 | 0.252 | 0.113 | 0.247 | 0.247 | 0.245 | 0.209 | 0.204 | 0.386 | 0.366 | 0.202 | 0.115 | 0.126 | 0.241 | 0.159 | 0.125 | 0.124 | 0.12 |
| LOU-NH91 | 0.529 | 0.479 | 0.517 | 0.446 | 0.333 | 0.772 | 0.779 | 0.626 | 0.483 | 0.459 | 0.774 | 0.818 | 0.638 | 0.41 | 0.277 | 0.903 | 1.04 | 0.683 | 0.365 | 0.29 |
| LU99A | 0.408 | 0.386 | 0.345 | 0.184 | 0.145 | 0.59 | 0.526 | 0.579 | 0.244 | 0.197 | 0.306 | 0.385 | 0.226 | 0.132 | 0.0907 | 0.445 | 0.401 | 0.196 | 0.123 | 0.115 |
| LXF-289 | 0.607 | 0.57 | 0.481 | 0.233 | 0.107 | 0.8 | 0.615 | 0.453 | 0.147 | 0.0723 | 1.1 | 1 | 0.983 | 0.134 | 0.0617 | 0.78 | 0.622 | 0.421 | 0.11 | 0.0692 |
| NCI-H23 | 0.313 | 0.408 | 0.285 | 0.148 | 0.121 | 0.754 | 0.362 | 0.258 | 0.127 | 0.121 | 0.196 | 0.261 | 0.199 | 0.0923 | 0.0935 | 0.519 | 0.284 | 0.0883 | 0.121 | 0.0755 |
| NCI-H322M | 0.519 | 0.511 | 0.457 | 0.429 | 0.484 | 0.741 | 0.94 | 0.724 | 0.419 | 0.466 | 0.593 | 0.722 | 0.498 | 0.451 | 0.413 | 0.933 | 0.914 | 0.78 | 0.522 | 0.428 |
| NCI-H358 | 0.139 | 0.126 | 0.11 | 0.0792 | 0.0843 | 0.481 | 0.575 | 0.164 | 0.132 | 0.213 | 0.541 | 0.493 | 0.419 | 0.193 | 0.14 | 0.589 | 0.541 | 0.0993 | 0.0786 | 0.0711 |
| NCI-H441 | 0.243 | 0.255 | 0.172 | 0.125 | 0.147 | 0.634 | 0.617 | 0.287 | 0.152 | 0.218 | 1.13 | 0.73 | 0.437 | 0.198 | 0.171 | 0.446 | 0.827 | 0.195 | 0.174 | 0.19 |
| NCI-H460 | 0.185 | 0.172 | 0.173 | 0.0095 | 0.0133 | 1.14 | 0.899 | 0.0648 | 0.0097 | 0.0254 | 0.63 | 0.654 | 0.554 | 0.0553 | 0.0434 | 0.745 | 0.723 | 0.0471 | 0.0166 | 0.0169 |
| NCI-H647 | 0.436 | 0.39 | 0.174 | 0.0732 | 0.077 | 1.01 | 0.788 | 0.224 | 0.113 | 0.108 | 0.356 | 0.491 | 0.248 | 0.0314 | 0.026 | 0.326 | 0.489 | 0.113 | 0.0523 | 0.0497 |
| NCI-H1648 | 0.222 | 0.309 | 0.234 | 0.273 | 0.255 |  |  |  |  |  | 0.699 | 0.721 | 0.637 | 0.25 | 0.214 | 0.37 | 0.523 | 0.203 | 0.267 | 0.186 |
| NCI-H1793 | 0.229 | 0.357 | 0.233 | 0.247 | 0.177 |  |  |  |  |  | 0.463 | 0.407 | 0.301 | 0.148 | 0.103 | 0.553 | 0.42 | 0.328 | 0.17 | 0.113 |
| NCI-H2342 | 0.519 | 0.509 | 0.513 | 0.437 | 0.422 |  |  |  |  |  | 0.593 | 0.476 | 0.374 | 0.38 | 0.425 | 0.917 | 0.744 | 0.595 | 0.693 | 0.527 |
